Like-named read-outs stand apart in the source and are kept apart here.
Tests used:
[1] = Plasma Stability Assay of Example A3, mouse plasma; conditions: % of prodrug compound remaining, 37° C.
[2] = Plasma Stability Assay of Example A3, human plasma; conditions: % of prodrug compound remaining, 37° C.
[3] = 5 µM
Description: (§1) 50 uL aliquots of positive controls and test compounds spiked into rat or human plasma (n=2) were added to a pre-warmed plate (37° C.) and shaken at 50 rpm. At each respective time point, the reaction was stopped by adding 500 μL of acetonitrile containing internal standards (100 nM aprozolam, 200 nM caffeine, 100 nM tolbutamide). All samples were vortexed for 10 minutes, followed by centrifugation at 3,220 g for 30 minutes to precipitate proteins. 100 μL of the supernatant is transferred to a new plate. The supernatant will be diluted with ultrapure water according to the LC-MS signal response and peak shape.

[4] = 5 µM; remark: listed apart in the source
Description: as §1

SMILES	Mouse Plasma Prodrug (%) ([1]; 0.0 min)	Mouse Plasma Prodrug (%) ([1]; 15 min)	Mouse Plasma Prodrug (%) ([1]; 30 min)	Mouse Plasma Prodrug (%) ([1]; 60 min)	Mouse Plasma Prodrug (%) ([1]; 120 min)	Mouse Plasma Prodrug (%) ([1]; 240 min)	Human Plasma Prodrug (%) ([2]; 0.0 min)	Human Plasma Prodrug (%) ([2]; 30 min)	Human Plasma Prodrug (%) ([2]; 60 min)	Human Plasma Prodrug (%) ([2]; 120 min)	Human Plasma Prodrug (%) ([2]; 240 min)	Human Plasma Prodrug (%) ([2]; 15 min)	further results
C=C(C)C(=O)OC1=C[C@@H]2N(C)CC[C@]2(c2ccc(OC)c(OC)c2)CC1 [Compound 315, [(3aS,7aS)-3a-(3,4-dimethoxyphenyl)-1-methyl-3,4,5,7a-tetrahydro-2H-indol-6-yl]-2-methylprop-2-enoate]	100.0	5.3	2.4	1.3	2.0	1.9	100.0	2.3	0.5	0.2	0.0	–	–
COc1ccc([C@@]23CCC(OC(=O)c4ccc(C#N)cc4)=C[C@@H]2N(C)CC3)cc1OC [Compound 354, (3aS,7aS)-3a-(3,4-dimethoxyphenyl)-1-methyl-2,3,3a,4,5,7a-hexahydro-1H-indol-6-yl 4-cyanobenzoate]	100	5	7	5	4	0	100	72	42	13	1	93	–
COc1ccc([C@@]23CCC(OC(=O)c4cccc(N(C)C)c4)=C[C@@H]2N(C)CC3)cc1OC [Compound 307, [(3aS,7aS)-3a-(3,4-dimethoxyphenyl)-1-methyl-3,4,5,7a-tetrahydro-2H-indol-6-yl] 3-(dimethylamino)benzoate]	100.0	–	3.8	0.1	0.0	0.0	100.0	–	83.0	–	–	–	–
COc1ccc([C@@]23CCC(OC(=O)C4CC4)=C[C@@H]2N(C)CC3)cc1OC [Compound 312, [(3aS,7aS)-3a-(3,4-dimethoxyphenyl)-1-methyl-3,4,5,7a-tetrahydro-2H-indol-6-yl] cyclopropanecarboxylate]	100.0	3.5	1.6	2.2	2.8	0.8	100.0	6.2	–	–	–	8.1	–
COc1ccc([C@@]23CCC(OC(=O)C(C)(C)C)=C[C@@H]2N(C)CC3)cc1OC [Compound 309, [(3aS,7aS)-3a-(3,4-dimethoxyphenyl)-1-methyl-3,4,5,7a-tetrahydro-2H-indol-6-yl] 2,2-dimethylpropanoate]	100.0	–	–	8.2	0.0	0.0	100.0	–	–	3.6	2.0	–	–
COc1ccc([C@@]23CCC(OC(=O)C(c4ccccc4)c4ccccc4)=C[C@@H]2N(C)CC3)cc1OC [Compound 306, [(3aS,7aS)-3a-(3,4-dimethoxyphenyl)-1-methyl-3,4,5,7a-tetrahydro-2H-indol-6-yl] 2,2-diphenylacetate]	100.0	6.2	–	1.6	0.4	0.1	100.0	–	–	–	–	–	–
COc1ccc([C@@]23CCC(OC(=O)c4ccc(N(C)C)cc4)=C[C@@H]2N(C)CC3)cc1OC [Compound 355, [(3aS,7aS)-3a-(3,4-dimethoxyphenyl)-1-methyl-3,4,5,7a-tetrahydro-2H-indol-6-yl] 4-(dimethylamino)benzoate]	100.0	–	–	9.9	0.5	0.0	100.0	>99	>99	>99	–	>99	–
C/C=C(\C)C(=O)OC1=C[C@@H]2N(C)CC[C@]2(c2ccc(OC)c(OC)c2)CC1 [Compound 313, [(3aS,7aS)-3a-(3,4-dimethoxyphenyl)-1-methyl-3,4,5,7a-tetrahydro-2H-indol-6-yl](E)-2-methylbut-2-enoate]	100.0	2.1	0.7	0.1	0.0	0.0	100.0	–	–	2.4	0.4	–	–
COc1ccc([C@@]23CCC(OC(=O)c4cccc(C(C)(C)C)c4)=C[C@@H]2N(C)CC3)cc1OC [Compound 375, (3aS,7aS)-3a-(3,4-dimethoxyphenyl)-1-methyl-2,3,3a,4,5,7a-hexahydro-1H-indol-6-yl 3-(tert-butyl)benzoate]	100	11	2	0	0	0	100	>99	97	57	26	>99	–
COc1ccc([C@@]23CCC(OC(=O)c4ccc(F)cc4)=C[C@@H]2N(C)CC3)cc1OC [Compound 353, (3aS,7aS)-3a-(3,4-dimethoxyphenyl)-1-methyl-2,3,3a,4,5,7a-hexahydro-1H-indol-6-yl 4-fluorobenzoate]	100	0	0	0	0	0	100	–	–	–	–	–	–
CCCCCCCC(=O)OC1=C[C@@H]2N(C)CC[C@]2(c2ccc(OC)c(OC)c2)CC1 [Compound 395, (3aS,7aS)-3a-(3,4-dimethoxyphenyl)-1-methyl-2,3,3a,4,5,7a-hexahydro-1H-indol-6-yl octanoate]	–	–	–	–	–	–	–	–	–	–	–	–	Rat Plasma Prodrug (%) ([3]; 0 min): 100.0%; Rat Plasma Prodrug (%) ([3]; 10 min): 0.3%; Rat Plasma Prodrug (%) ([3]; 30 min): 0.1%; Rat Plasma Prodrug (%) ([3]; 60 min): 0.1%; Rat Plasma Prodrug (%) ([3]; 120 min): 0.1%; Rat Plasma Prodrug (%) ([3]; 240 min): 0.1%; Human Plasma Prodrug (%) ([4]; 0 min): 100.0%; Human Plasma Prodrug (%) ([4]; 10 min): 13.9%; Human Plasma Prodrug (%) ([4]; 30 min): 3.5%; Human Plasma Prodrug (%) ([4]; 60 min): 1.1%; Human Plasma Prodrug (%) ([4]; 120 min): 0.3%; Human Plasma Prodrug (%) ([4]; 240 min): 0.1%

— patent US12269800B2, “Delivery of therapeutic alkaloid compounds” (priority 2021, dated 2025)
